Experimental data reported in US20250152743A1, “SYNPOPTOSIS CIRCUITS FOR PROGRAMMABLE CELL DEATH CONTROL” (California Institute of Technology, priority 2023, published 2025).
“Also recorded” adds a separate entry of the source.

Columns and labels:
Type in all cases: cell-based, human
HEK cells [1] = experiment: Q-VD-OPh on circuit-induced cell death, flow cytometry; conditions: Q-VD-OPh 30 μM
Protocol: Then, because naturally occurring cell death can be modulated by small-molecule compounds, the effect of Q-VD-OPh, a caspase inhibitor, on synpoptosis circuits was investigated (FIG. 2C). […] It was also asked whether cells treated with synpoptosis circuits stain positive for TO-PRO-3, a dye that enters apoptotic cells through pannexin channels and pyroptotic cells through permeabilized membranes.
On the day before transfection, HEK cells were seeded at a density of 0.3-0.6 million cells per well on a 12-well plate, 0.1-0.3 million cells per well on a 24-well plate, or 15,000-50,000 cells per well on a 96-well plate. The cells were allowed to attach to the plate overnight, for at least 8 hours. On the day of transfection, we treated the cells with purified DNA plasmids encoding circuit components. In addition to plasmids encoding circuit components, we often included a plasmid encoding a fluorescent co-transfection marker, at roughly 50 ng DNA per well on a 24-well plate. Given the different number of molecular components in each synthetic circuit and their various relative ratios, the total amount of DNA ranged from 50 to 1 μg per well on a 24-well plate, and was scaled by 0.5 or 4 when other 12-well or 96-well plates were used, respectively. […]

HEK cells [2] = experiment: Transient DNA transfection of HEK cells, Annexin/Sytox staining, flow cytometry; conditions: tev, tvmv and hcv sites
Protocol: HEK cells were transiently co-transfected with DNA encoding the circuits, often along with Cherry, a fluorescent protein marker, and cells were analyzed by flow cytometry 16 to 24 hours later. To quantify cell death, the cells were strained with Annexin, Sytox, or both. Annexin stains apoptotic cells by binding to phosphatidylserine exposed on the outer leaflet, and pyroptotic cells by binding to phosphatidylserine in the inner leaflet after membrane permeabilization. In contrast, Sytox, a membrane-impermeable dye, primarily stains pyroptotic cells. Therefore, apoptotic cells are typically Annexin-high and Sytox-low, while pyroptotic cells are Annexin-high and Sytox-high (FIG. 7B). For simplicity, in experiments involving only a single death mode, a single relevant dye was often used. To focus on cells influenced by the circuits, the fraction of Annexin- or Sytox-positive cells was calculated after gating on the fluorescent co-transfection marker (FIG. 7C).
On the day before transfection, HEK cells were seeded at a density of 0.3-0.6 million cells per well on a 12-well plate, 0.1-0.3 million cells per well on a 24-well plate, or 15,000-50,000 cells per well on a 96-well plate. The cells were allowed to attach to the plate overnight, for at least 8 hours. On the day of transfection, we treated the cells with purified DNA plasmids encoding circuit components. […]

HEK293FT cells [3] = experiment: Polytransfection of input proteases and caspase cleavage-site variants, Annexin staining; conditions: order, decreasing: ENLFFQQ; ENLFFQY; ENLYFQS+TEVP-cleavable DHFR; ENLFFQS~ENLYFQY~ENLYFQQ; ENLYFQS; both TEVP and TVMVP cleavage site
From the text: The cleavage efficiency of proteases is known to depend on corresponding accessible cleavage sites. Mutations to native protease cleavage sites can slow (i) the recruitment of substrates to the protease active site, (ii) catalytic reaction steps, or (iii) the release of the substrate from the protease. As described herein, this property to modulate cell death executioner activation thresholds. Specifically, we surveyed the following constructs with modified protease cleavage sites across a wide range of possible cell death executioner and input protease expression regimes:
Caspase 3 with ENLYFQS TEVP protease cleavage site (native protease cleavage site is ENLYFQG/S, SEQ ID NOs: 1-2), which serves as a control; Caspase 3 with ENLYFQY (SEQ ID NO: 3) TEVP protease cleavage site; Caspase 3 with ENLYFQQ (SEQ ID NO: 4) TEVP protease cleavage site; Caspase 3 with ENLFFQS (SEQ ID NO: 5) TEVP protease cleavage site; Caspase 3 with ENLFFQY (SEQ ID NO: 6) TEVP protease cleavage site; Caspase 3 with ENLFFQQ (SEQ ID NO: 7) TEVP protease cleavage site; Caspase 3 with both native TEVP and TVMVP cleavage sites separated by linker; Caspase 3 with native TEVP cleavage site fused to C-terminal TEVP-cleavable DHFR degron.
To evaluate how the mutated protease cleavage sites affect Caspase 3 activation, we polytransfected (i) input proteases (P3/P4-zipper reconstituted TEVP as a positive control, split TEVP without reconstitution domain as a negative control, or NeoR to evaluate caspase baseline activity; all with IRES-BFP to enable expression tracking) and (ii) output caspase (caspase+co-transfected GFP for expression tracking) in HEK293FT cells. Annexin staining as described above in Example 1 was used to quantify cell death.

HEK293FT cells [4] = experiment: Co-transfection time course, cell death every 24 h over 4 days; conditions: P3/P4-zipper reconstituted TEVP
Protocol: Moreover, it was evaluated if some of these mutations affect the maximal caspase activation accessible and the time dependency between caspase activation and cell death by co-transfecting (i) input proteases (P3/P4-zipper reconstituted TEVP as a positive control, split TEVP without reconstitution domain as a negative control, or NeoR to evaluate caspase baseline activity; all with IRES-BFP to enable expression tracking) and (ii) output caspase (“ENLYFQS” (SEQ ID NO: 2)/“ENLYFQQ” (SEQ ID NO: 4)/“ENLFFQQ” (SEQ ID NO: 7)+co-transfected GFP for expression tracking) in HEK293FT cells and measuring cell death every 24 h over the course of 4 days.

`CC(C)[C@H](NC(=O)c1ccc2ccccc2n1)C(=O)N[C@@H](CC(=O)O)C(=O)COc1c(F)cccc1F` [Q-VD-OPh, Quinoline-Val-Asp-Difluorophenoxymethylketone] was tested, and the “apoptosis induced by the caspase-3 circuit” value (HEK cells [1]) was “suppressed circuit-induced apoptosis; also recorded: markedly attenuated apoptosis” and the “pyroptosis mediated by the GSDMA circuit” value (HEK cells [1]) was “did not affect pyroptosis”.
For “hepatitis C virus protease [HCVP, reference compound]”, the “activation of cognate engineered GSDMs containing the cleavage sites” value (HEK cells [2]) was “orthogonally activated their cognate engineered GSDMs”.
For “ENLFFQY: caspase 3 with modified TEVP cleavage site (left off: small tags and cut ends)”, the “input/output expression required for caspase activation (activation threshold)” value (“input/output expression required” for short) (HEK293FT cells [3]) was “in decreasing order”.
With “ENLYFQQ: caspase 3 with modified TEVP cleavage site (left off: small tags and cut ends)” the “input/output expression required” value (HEK293FT cells [3]) was “in decreasing order” and the “maximal caspase activation / maximal fraction of dead cells” value (HEK293FT cells [4]) was “comparable maximal fraction of dead cells”.
In the case of “ENLYFQY: caspase 3 with modified TEVP cleavage site (left off: small tags and cut ends)”, the “input/output expression required” value (HEK293FT cells [3]) is reported as “in decreasing order”.
“ENLFFQQ: caspase 3 with modified TEVP cleavage site (left off: small tags and cut ends)” was tested, and the “input/output expression required” value (HEK293FT cells [3]) was “requires the highest input/output expression for activation” and the “maximal caspase activation / maximal fraction of dead cells” value (HEK293FT cells [4]) was “reduces the maximum activation to a degree where the complete killing of the cell population is not possible anymore”.
